Assay results: ChEMBL document CHEMBL5214883, “Comprehensive review for anticancer hybridized multitargeting HDAC inhibitors” (Eur J Med Chem, 2021)
pIC50: −log10 of the molar value. Blank lines part the entries; values can stand above or below the molecule they belong to.

Legend:
[1] = biological target: Histone deacetylase; test: Inhibition of HDAC (unknown origin); assay type: protein assay, Homo sapiens
[2] = biological target: T1, Histone deacetylase 1 (Homo sapiens, UniProt Q13547); test: Inhibition of HDAC1 (unknown origin)
T1 sequence (Q13547 whole entry): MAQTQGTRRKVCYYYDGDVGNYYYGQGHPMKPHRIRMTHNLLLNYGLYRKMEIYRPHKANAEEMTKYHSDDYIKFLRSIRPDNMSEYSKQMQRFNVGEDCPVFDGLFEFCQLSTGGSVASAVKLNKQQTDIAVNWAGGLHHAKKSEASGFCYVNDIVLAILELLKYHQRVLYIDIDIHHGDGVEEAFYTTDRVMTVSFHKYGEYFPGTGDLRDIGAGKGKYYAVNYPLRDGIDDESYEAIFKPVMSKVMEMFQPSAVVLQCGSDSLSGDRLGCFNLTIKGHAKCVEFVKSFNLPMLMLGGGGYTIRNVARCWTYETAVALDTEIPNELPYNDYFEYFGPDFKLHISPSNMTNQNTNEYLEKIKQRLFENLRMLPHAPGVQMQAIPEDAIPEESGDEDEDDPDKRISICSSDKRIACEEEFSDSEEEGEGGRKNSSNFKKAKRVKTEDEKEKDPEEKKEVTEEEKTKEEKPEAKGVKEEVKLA

[3] = test system: SMMC-7721; test: Cytotoxicity against human SMMC-7721 cells; assay type: functional, cell-based
[4] = biological target: Histone-lysine N-methyltransferase EZH2 (Homo sapiens, UniProt Q15910); test: Inhibition of EZH2 (unknown origin)
[5] = test system: MCF7; test: Cytotoxicity against human MCF7 cells; assay type: functional, cell-based
[6] = biological target: Vascular endothelial growth factor receptor 2 (Homo sapiens, UniProt P35968); test: Inhibition of VEGFR2 (unknown origin)
[7] = biological target: T1, Histone deacetylase 1; test: Inhibition of HDAC1 (unknown origin) relative to control; conditions: concentration not given here
[8] = test system: Panel NCI-60 (60 carcinoma cell lines); test: Cytotoxicity against human Panel NCI-60 (60 carcinoma cell lines); assay type: functional, cell-based
[9] = test system: K562; test: Cytotoxicity against human K562 cells
[10] = test system: DU-145; test: Cytotoxicity against human DU-145 cells
[11] = biological target: Inhibitor of nuclear factor kappa-B kinase subunit alpha (Homo sapiens) (UniProt O15111); test: Inhibition of IKKa (unknown origin) at 1 uM relative to control
Inhibitor of nuclear factor kappa-B kinase subunit alpha (Homo sapiens), sequence (O15111 whole entry): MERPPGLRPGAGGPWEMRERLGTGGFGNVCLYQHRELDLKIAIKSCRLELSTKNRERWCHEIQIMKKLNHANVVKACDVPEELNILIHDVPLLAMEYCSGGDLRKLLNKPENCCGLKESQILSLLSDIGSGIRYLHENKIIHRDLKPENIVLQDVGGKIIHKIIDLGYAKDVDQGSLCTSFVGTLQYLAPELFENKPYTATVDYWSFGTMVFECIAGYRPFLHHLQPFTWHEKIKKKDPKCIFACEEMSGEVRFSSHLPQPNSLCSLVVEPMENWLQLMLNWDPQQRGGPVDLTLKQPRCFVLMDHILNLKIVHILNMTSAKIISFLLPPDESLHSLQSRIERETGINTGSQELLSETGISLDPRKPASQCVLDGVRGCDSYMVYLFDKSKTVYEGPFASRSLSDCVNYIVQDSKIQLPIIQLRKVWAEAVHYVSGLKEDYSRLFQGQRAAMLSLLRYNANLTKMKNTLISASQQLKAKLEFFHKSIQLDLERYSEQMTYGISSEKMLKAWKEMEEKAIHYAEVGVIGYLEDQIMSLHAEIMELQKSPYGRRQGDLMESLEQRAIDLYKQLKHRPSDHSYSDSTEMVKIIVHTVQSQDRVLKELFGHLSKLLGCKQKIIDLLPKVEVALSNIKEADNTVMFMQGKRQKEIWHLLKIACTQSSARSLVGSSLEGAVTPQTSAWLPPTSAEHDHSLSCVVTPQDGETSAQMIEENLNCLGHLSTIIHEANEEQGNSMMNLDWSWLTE

[12] = biological target: Ribosomal protein S6 kinase alpha-5 (Homo sapiens) (UniProt O75582); test: Inhibition of MSK1 (unknown origin) at 1 uM relative to control
Ribosomal protein S6 kinase alpha-5 (Homo sapiens), sequence (O75582 whole entry, looked up): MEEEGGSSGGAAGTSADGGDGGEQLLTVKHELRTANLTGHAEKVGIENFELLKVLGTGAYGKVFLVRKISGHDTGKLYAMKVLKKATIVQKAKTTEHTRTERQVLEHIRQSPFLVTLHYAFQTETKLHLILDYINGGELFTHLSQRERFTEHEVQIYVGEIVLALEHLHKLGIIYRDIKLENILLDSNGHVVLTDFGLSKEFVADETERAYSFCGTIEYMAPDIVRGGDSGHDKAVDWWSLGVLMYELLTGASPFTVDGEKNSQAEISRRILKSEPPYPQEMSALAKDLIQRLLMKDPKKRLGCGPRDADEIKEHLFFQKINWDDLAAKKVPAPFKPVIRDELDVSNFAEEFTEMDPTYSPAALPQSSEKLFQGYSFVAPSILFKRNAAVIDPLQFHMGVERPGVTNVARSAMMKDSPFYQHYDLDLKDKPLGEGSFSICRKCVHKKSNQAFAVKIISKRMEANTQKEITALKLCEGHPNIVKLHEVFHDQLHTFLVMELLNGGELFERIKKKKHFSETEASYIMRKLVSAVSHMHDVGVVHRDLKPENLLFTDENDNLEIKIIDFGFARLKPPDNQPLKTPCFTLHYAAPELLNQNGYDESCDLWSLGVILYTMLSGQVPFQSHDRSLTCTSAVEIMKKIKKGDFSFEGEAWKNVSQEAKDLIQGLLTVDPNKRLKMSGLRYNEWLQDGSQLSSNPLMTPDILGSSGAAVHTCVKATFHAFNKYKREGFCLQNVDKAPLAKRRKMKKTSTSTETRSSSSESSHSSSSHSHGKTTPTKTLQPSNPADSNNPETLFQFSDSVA

[13] = biological target: Vitamin D3 receptor (Homo sapiens, UniProt P11473); test: Agonist activity at Vitamin D receptor (unknown origin) by fluorescence polarization assay
Vitamin D3 receptor, sequence (P11473 whole entry): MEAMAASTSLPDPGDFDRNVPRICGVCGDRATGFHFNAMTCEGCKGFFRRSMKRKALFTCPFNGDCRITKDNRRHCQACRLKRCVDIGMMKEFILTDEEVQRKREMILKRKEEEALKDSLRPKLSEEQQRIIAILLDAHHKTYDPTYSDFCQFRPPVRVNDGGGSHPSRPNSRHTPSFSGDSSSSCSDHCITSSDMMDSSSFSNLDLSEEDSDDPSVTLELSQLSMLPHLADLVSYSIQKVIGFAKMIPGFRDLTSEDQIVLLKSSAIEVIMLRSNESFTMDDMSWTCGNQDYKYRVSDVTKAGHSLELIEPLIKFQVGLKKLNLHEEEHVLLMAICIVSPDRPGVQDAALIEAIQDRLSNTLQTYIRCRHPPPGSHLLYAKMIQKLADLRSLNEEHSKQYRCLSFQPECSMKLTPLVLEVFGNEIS

[14] = biological target: T2, Protein deacetylase HDAC6 (Homo sapiens, UniProt Q9UBN7); test: Inhibition of HDAC6 (unknown origin)
T2 sequence (Q9UBN7 whole entry): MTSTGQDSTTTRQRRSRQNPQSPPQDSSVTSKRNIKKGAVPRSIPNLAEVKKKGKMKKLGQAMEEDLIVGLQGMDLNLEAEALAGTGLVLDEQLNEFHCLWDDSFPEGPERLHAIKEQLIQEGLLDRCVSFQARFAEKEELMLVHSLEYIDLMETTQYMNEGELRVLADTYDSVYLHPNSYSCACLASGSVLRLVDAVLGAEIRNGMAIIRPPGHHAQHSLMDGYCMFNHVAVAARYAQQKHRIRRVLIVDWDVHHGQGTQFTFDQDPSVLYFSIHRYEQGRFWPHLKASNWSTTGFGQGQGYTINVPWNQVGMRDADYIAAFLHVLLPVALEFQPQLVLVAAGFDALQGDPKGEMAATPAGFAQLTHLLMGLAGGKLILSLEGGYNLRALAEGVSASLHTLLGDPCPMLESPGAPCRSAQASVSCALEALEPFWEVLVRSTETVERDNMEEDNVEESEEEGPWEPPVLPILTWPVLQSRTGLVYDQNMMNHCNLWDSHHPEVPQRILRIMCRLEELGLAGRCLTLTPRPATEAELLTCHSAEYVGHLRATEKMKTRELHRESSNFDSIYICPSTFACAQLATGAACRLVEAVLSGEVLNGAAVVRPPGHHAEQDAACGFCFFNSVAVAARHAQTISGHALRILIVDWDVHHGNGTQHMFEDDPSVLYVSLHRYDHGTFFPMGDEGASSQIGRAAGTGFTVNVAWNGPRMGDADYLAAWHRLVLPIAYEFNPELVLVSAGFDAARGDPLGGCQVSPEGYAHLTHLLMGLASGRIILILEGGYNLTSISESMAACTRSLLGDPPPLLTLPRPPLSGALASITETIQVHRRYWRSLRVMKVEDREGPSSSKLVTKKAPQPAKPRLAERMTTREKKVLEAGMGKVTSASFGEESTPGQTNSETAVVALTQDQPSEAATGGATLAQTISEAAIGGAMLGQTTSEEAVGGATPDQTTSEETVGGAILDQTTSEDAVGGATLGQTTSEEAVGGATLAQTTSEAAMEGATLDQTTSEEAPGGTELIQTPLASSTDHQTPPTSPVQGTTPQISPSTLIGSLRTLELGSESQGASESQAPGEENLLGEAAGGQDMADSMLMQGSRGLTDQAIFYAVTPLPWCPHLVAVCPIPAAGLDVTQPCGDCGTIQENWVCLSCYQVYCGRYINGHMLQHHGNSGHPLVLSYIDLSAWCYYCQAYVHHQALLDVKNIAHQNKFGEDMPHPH

[15] = biological target: Histone deacetylase 8 (Homo sapiens, UniProt Q9BY41); test: Inhibition of HDAC8 (unknown origin)
[16] = biological target: T2, Protein deacetylase HDAC6; test: Inhibition of HDAC-6 (unknown origin) expressed in Escherichia coli BL21 (DE3) in HeLa nuclear extract using Boc-Lys(TFA)-AMC as substrate preincubated for 5 mins followed by substrate addition measured after 30 mins […]
[17] = biological target: Bcr/Abl fusion protein (Homo sapiens, UniProt P00519); test: Inhibition of Bcr-Abl (unknown origin); assay type: protein assay
Bcr/Abl fusion protein, sequence (P00519 whole entry, the tested form may be a part): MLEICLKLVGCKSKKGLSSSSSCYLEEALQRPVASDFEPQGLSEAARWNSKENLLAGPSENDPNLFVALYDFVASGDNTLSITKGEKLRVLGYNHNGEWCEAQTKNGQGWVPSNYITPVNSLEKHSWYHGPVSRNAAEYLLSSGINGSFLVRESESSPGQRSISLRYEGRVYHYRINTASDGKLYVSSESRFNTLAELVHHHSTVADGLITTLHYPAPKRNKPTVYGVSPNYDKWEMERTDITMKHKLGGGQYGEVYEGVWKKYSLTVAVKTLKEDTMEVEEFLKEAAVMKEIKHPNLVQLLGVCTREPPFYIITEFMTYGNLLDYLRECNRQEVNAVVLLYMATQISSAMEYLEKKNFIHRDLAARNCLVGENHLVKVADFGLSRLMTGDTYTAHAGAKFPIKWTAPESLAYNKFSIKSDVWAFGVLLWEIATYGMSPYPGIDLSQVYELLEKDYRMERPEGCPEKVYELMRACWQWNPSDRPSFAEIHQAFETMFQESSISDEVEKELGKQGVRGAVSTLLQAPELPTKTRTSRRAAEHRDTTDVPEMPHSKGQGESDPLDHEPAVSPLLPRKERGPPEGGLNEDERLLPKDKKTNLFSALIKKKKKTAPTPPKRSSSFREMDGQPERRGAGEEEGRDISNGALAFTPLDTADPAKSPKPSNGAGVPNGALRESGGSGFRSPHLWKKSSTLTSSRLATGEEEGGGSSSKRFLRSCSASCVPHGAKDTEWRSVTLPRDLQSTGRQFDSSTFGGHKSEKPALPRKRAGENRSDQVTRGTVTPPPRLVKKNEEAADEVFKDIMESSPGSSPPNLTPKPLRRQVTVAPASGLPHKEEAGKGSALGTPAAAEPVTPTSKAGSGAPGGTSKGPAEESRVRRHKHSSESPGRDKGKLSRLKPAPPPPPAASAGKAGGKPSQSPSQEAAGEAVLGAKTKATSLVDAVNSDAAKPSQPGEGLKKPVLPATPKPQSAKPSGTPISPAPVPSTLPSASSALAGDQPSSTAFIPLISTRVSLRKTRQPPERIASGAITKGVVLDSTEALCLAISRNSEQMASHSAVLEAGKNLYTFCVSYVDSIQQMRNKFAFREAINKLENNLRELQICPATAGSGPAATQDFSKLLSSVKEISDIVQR
Bcr/Abl fusion protein, sequence (P11274 whole entry, further chain, the tested form may be a part): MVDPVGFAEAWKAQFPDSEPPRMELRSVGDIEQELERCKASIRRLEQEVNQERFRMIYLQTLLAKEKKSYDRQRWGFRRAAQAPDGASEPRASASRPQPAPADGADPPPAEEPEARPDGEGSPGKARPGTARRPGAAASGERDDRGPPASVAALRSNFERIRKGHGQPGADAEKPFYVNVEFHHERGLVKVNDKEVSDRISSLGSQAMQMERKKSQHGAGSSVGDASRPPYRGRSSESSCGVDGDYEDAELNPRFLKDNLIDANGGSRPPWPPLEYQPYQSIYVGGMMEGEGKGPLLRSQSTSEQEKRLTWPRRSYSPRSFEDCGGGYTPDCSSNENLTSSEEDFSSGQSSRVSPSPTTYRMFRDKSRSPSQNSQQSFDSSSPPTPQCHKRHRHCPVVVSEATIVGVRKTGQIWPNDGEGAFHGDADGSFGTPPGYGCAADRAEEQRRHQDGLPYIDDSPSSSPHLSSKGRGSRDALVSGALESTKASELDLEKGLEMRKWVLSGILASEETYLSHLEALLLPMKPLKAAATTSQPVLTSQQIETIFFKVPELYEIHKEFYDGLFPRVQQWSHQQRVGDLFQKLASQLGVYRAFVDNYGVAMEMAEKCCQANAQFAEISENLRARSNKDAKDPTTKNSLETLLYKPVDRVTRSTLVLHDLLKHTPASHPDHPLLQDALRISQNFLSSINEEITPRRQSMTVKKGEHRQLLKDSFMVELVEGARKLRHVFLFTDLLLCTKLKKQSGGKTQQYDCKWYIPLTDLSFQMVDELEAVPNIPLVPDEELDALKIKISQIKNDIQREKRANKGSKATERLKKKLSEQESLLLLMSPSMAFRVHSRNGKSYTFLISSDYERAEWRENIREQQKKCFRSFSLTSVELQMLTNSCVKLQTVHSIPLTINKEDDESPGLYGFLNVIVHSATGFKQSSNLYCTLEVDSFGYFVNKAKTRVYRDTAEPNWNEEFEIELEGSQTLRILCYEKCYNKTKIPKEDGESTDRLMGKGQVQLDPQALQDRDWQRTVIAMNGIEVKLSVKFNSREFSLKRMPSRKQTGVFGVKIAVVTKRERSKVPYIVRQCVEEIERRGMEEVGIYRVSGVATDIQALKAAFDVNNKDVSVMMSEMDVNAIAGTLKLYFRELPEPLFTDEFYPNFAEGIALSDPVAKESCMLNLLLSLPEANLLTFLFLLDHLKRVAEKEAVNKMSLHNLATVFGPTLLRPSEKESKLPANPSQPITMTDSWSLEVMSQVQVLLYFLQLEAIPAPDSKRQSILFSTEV

[18] = test system: A549; test: Antiproliferative activity against human A549 cells incubated for 72 hrs by CCK-8 assay; assay type: functional, cell-based; conditions: A549, 72 h
[19] = test system: HepG2; test: Antiproliferative activity against human HepG2 cells incubated for 72 hrs by CCK-8 assay; assay type: functional, cell-based; conditions: HepG2, 72 h
[20] = test system: MCF7; test: Antiproliferative activity against human MCF7 cells incubated for 72 hrs by CCK-8 assay; assay type: functional, cell-based; conditions: MCF7, 72 h
[21] = test system: PC-3; test: Antiproliferative activity against human PC-3 cells incubated for 72 hrs by CCK-8 assay; assay type: functional, cell-based; conditions: PC-3, 72 h
[22] = test system: HeLa; test: Antiproliferative activity against human HeLa cells incubated for 72 hrs by CCK-8 assay; assay type: functional, cell-based
[23] = biological target: Tubulin; test: Inhibition of tubulin polymerization (unknown origin) incubated for 15 mins in presence of GTP by fluorescence-based tubulin polymerization assay kit; assay type: protein-complex assay, Homo sapiens
[24] = biological target: cGMP-specific 3',5'-cyclic phosphodiesterase (Homo sapiens, UniProt O76074); test: Inhibition of PDE5 (unknown origin) incubated for 1.5 hrs by IMAP fluorescence polarization phosphodiesterase evaluation assay
[25] = test system: HCT-116; test: In vivo antitumor activity against human HCT-116 cells xenografted in BALB/c nude mouse assessed as tumor growth inhibition at 150 mg/kg, po relative to control; assay type: functional; conditions: read-out: TGI

Compound: CC(C)=CCC/C(C)=C\CC/C(C)=C\CSc1ccccc1C(=O)NCCCCC(=O)NO
pIC50 [2]: 9.24 | pIC50 [3]: 5.31

Compound: COc1cc2ncnc(Nc3ccc(Cl)cc3Cl)c2cc1OCCCCCCC(=O)NO
pIC50 [5]: 4.92 | IC50 [1]: 0.0028 µM | pIC50 [6]: 7.08

Compound: NC(=O)c1cc(Oc2ccc(NC(=O)c3ccc(Cl)c(C(F)(F)F)c3)cc2)ccc1N
IC50 [1]: 2.79 µM

Compound: O=C(CCn1cc(CCn2nc3c(Br)c(Br)c(Br)c(Br)c3n2)nn1)NO
inhibition [7]: 97%

Compound: Cn1c(CCCC(=O)O)nc2cc(N(CCCl)CCCl)ccc21 [BENDAMUSTINE]
pIC50 [8]: 7.11

Compound: Nc1ccccc1NC(=O)c1ccc(CNC(=O)OCc2cccnc2)cc1 [ENTINOSTAT]
pIC50 [9]: 4.67 | pIC50 [10]: 5.43

Compound: CC(/C=C/C(=O)NO)=C\[C@@H](C)C(=O)c1ccc(N(C)C)cc1 [TRICHOSTATIN]
pIC50 [13]: 7.06

Compound: CN(CCOc1no[n+]([O-])c1S(=O)(=O)c1ccccc1)C(=O)c1ccc(/C=C/C(=O)NO)cc1
pIC50 [14]: 6.80 | pIC50 [15]: 6.59

Compound: O=C(CCCCCNC(=O)c1cccc2cc3ccccc3nc12)NO
pIC50 [16]: 8.64

Compound: Cc1nc(Nc2ncc(C(=O)Nc3c(C)cccc3Cl)s2)cc(N2CCN(CCO)CC2)n1 [DASATINIB]
pIC50 [9]: 5.13 | pIC50 [10]: 5.61

Compound: C[C@H]1COc2c(N3CCN(C)CC3)c(F)cc3c(=O)c(C(=O)NCc4cn(CCCCCCC(=O)NO)nn4)cn1c23
pIC50 [23]: 5.75

Compound: CN1c2ccccc2C(=O)N2[C@H](C(=O)Nc3ccc(C(=O)Nc4ccccc4N)cc3)Cc3c([nH]c4ccccc34)[C@@H]12
inhibition in vivo at 150 mg/kg [25]: 75.2%

Now from value to molecule, other results behind:

IC50 [1]: 1.95 µM
Compound: CNC(=O)c1cc(Oc2ccc(NC(=O)c3cccc(O)c3)cc2)ccc1N

pIC50 [4]: 4.81
Compound: Cc1cc(C)c(CNC(=O)c2cc(C)n(-c3ccccc3)c2C)c(=O)[nH]1

IC50 [1]: > 1000 µM
Compound: CN(C)C(=O)c1cc(Oc2ccc(NC(=O)c3ccc(Cl)c(C(F)(F)F)c3)cc2)ccc1N

IC50 [1]: > 10 µM
Compound: COc1cc2/c(=N/c3ccc(Br)cc3F)nc[nH]c2cc1OCC1CCN(C)CC1 [VANDETANIB]
pIC50 [5]: 4.73

inhibition [11]: 80% | inhibition [12]: 1%
Compound: CCN1CCN(Cc2ccc(Nc3ncc(F)c(-c4cc(F)c5nc(C)n(C(C)C)c5c4)n3)nc2)CC1

IC50 [1]: 1.03 µM
Compound: CNC(=O)c1cc(Oc2ccc(NC(=O)c3cccc(N)c3)cc2)ccc1N

pIC50 [2]: 6.09 | pIC50 [17]: 4.75
Compound: CCN1CCN(c2cc(Nc3ncc(C(=O)Nc4ccc(F)cc4N)s3)nc(C)n2)CC1
pIC50 [9]: 5.58 | pIC50 [10]: 6.22

pIC50 [18]: < 4.15 | pIC50 [19]: < 4.15 | pIC50 [20]: < 4.15 | pIC50 [21]: < 4.15 | pIC50 [22]: < 4.15 | pIC50 [23]: 4.95
Compound: C[C@H]1COc2c(N3CCN(C)CC3)c(F)cc3c(=O)c(C(=O)O)cn1c23 [LEVOFLOXACIN]

pIC50 [24]: 8.70
Compound: O=C(O)CCN1CC(=O)N2[C@H](CC3c4ccccc4NC3[C@H]2c2ccc(Br)cc2)C1=O (some centres not stated)

pIC50 [2]: 6.82 | pIC50 [17]: 4.67
Compound: CCN1CCN(c2cc(Nc3ncc(C(=O)Nc4ccccc4N)s3)nc(C)n2)CC1
pIC50 [9]: 5.59 | pIC50 [10]: 5.24

IC50 [1]: 6.19 µM
Compound: CNC(=O)c1cc(Oc2ccc(NC(=O)c3ccccc3)cc2)ccc1N
